Consider seven molecules from patent US20260201008A1, “SECRETIN-DERIVED GLP1R SELECTIVE AGONISTS” (GUBRA A/S, priority 2023, published 2026).

Data set [1] in a line: Turbidity of crude library peptides (absorbance at 600 nm). It counts as physicochemical. The following applies: Physical stability of peptides. Put shortly:
(§1)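 Turbidity is the absorbance at 600 nm, taken before heating. Fibril signal is the mean ThT emission at 480 nm (450 nm excitation), read every 10 min over 72 h at 40° C with 700 rpm shaking between reads. Peptides at 267 μM, pH 4.0 acetate or pH 7.0 phosphate buffer (50 mM), 4 μM ThT final.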

The nature of data set [2]: Fibril formation of crude library peptides (Thioflavin T). Conditions: Physical stability of peptides. It counts as physicochemical. Also on record: key: average ThT fluorescence emission at 480 nm (ex 450 nm), raw units. Put shortly: as §1
The target of a further data set is GLP1R (Homo sapiens, UniProt P43220). The data set can be described thus: hGLP1R potency, cAMP accumulation in CHO-K1 cells stably overexpressing hGLP1R. It counts as cell-based. Also on record: host or cells: CHO-K1. The following applies: for Selectivity: SCTR EC50/GLP1R EC50 ratio; for EC50: cAMP accumulation, CHO-K1 cells overexpressing hGLP1R; for SCTR EC50/GLP1R EC50 ratio: selectivity for hGLP1R over hSCTR, cAMP accumulation in CHO-K1 cells. The procedure, abridged: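 2000 cells/well, DPBS + 0.05% casein + 0.5 mM IBMX; 30 min RT stimulation; HTRF cAMP detection after 1 h. Purified: 3-fold ×11, n=2; crude: 10-fold ×5, n=1. EC50 by variable-slope fit.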
Chain of GLP1R (P43220 24-463): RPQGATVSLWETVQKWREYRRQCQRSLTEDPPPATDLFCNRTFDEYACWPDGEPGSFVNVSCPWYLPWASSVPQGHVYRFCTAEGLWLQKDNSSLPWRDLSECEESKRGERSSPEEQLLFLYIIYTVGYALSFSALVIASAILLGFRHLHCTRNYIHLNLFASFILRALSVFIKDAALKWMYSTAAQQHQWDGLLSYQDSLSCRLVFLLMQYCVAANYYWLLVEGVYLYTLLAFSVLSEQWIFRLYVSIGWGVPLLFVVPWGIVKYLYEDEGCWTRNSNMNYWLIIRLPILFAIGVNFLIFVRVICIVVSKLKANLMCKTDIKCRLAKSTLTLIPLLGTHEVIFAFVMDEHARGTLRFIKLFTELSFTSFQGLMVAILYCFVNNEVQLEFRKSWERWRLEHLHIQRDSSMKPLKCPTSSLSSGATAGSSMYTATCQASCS
In general terms: cAMP levels reflect the balance of adenylyl cyclase and phosphodiesterase activity.

The next data set addresses SCTR (Homo sapiens, UniProt P47872). Briefly: hSCTR potency, cAMP accumulation in CHO-K1 cells stably overexpressing hSCTR. It counts as cell-based. The arrangement: alternatively Euroscreen ES-712-AF; FAST-0161L; host or cells: CHO-K1. The following applies: cAMP accumulation, CHO-K1 cells overexpressing hSCTR. The procedure, abridged:
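Thawed CHO-K1 cells carrying stable hSCTR are plated into casein/IBMX buffer (0.05%, 0.5 mM), dosed immediately for 30 min at room temperature, then cAMP is detected by TR-FRET. Purified peptides run as 11 three-fold dilutions in duplicate, and curves are fitted with variable slope.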

The mark [3] stands for this setting: read-out: pEC50 hGLPR1 (converted).
[4] abbreviates: read-out: pEC50 hSCTR (converted).
[5] abbreviates: read-out: hGLP1R pEC50 (converted).
Where [6] appears, read: read-out: hSCTR pEC50 (converted).

Read-outs that look alike come from different tables or passages of the source. Numbered stars: 1 amine (or outer) side, 2 acyl side, 3 side chain; on linkers, the order of the positions; unused ones are H or OH. Square brackets hold non-standard residues; d marks the D form. Side chains are listed from the residue outwards. Peptide text beside a SMILES is read from it. * marks the point of attachment. C20 diacid = O=C(O)CCCCCCCCCCCCCCCCCCC(=O)*; γGlu = O=C(O)[C@H](CCC(=O)[*:2])N[*:1]; AEEA = NCCOCCOCC(=O)O; Aib = CC(C)(N)C(=O)O

Chain of SCTR (P47872 23-440): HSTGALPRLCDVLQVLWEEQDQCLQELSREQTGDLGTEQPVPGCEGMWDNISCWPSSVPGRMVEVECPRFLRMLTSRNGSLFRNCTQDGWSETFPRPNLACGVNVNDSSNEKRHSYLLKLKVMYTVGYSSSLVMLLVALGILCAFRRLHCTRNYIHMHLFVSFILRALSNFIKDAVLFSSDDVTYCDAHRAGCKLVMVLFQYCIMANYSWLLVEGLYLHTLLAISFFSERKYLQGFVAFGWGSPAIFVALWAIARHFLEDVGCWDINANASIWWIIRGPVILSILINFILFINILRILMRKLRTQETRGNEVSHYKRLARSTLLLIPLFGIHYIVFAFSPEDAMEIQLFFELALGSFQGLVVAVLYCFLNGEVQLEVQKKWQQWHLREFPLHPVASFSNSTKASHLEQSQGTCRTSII

`CC(C)C[C@H](NC(=O)[C@H](Cc1ccccc1)NC(=O)[C@H](CCCNC(=N)N)NC(=O)[C@H](CCC(N)=O)NC(=O)[C@H](CCC(N)=O)NC(=O)[C@H](C)NC(=O)[C@H](C)NC(=O)[C@@H](NC(=O)[C@H](CCC(=O)O)NC(=O)[C@H](CCCCNC(=O)COCCOCCNC(=O)COCCOCCNC(=O)CC[C@H](NC(=O)CCCCCCCCCCCCCCCCCCC(=O)O)C(=O)O)NC(=O)[C@H](CC(C)C)NC(=O)[C@H](CCCNC(=N)N)NC(=O)[C@H](CO)NC(=O)[C@@H](NC(=O)[C@H](CC(=O)O)NC(=O)[C@H](CO)NC(=O)[C@@H](NC(=O)[C@H](Cc1ccccc1)NC(=O)[C@@H](NC(=O)CNC(=O)[C@H](CCC(=O)O)NC(=O)C(C)(C)NC(=O)[C@@H](N)Cc1c[nH]cn1)[C@@H](C)O)[C@@H](C)O)C(C)C)[C@@H](C)O)C(=O)N[C@@H](CCC(=O)O)C(=O)N[C@@H](Cc1c[nH]cn1)C(=O)N[C@@H](CC(C)C)C(=O)N[C@H](C(N)=O)C(C)C` [compound 21] (H-H[Aib]EGTFTSDVSRLK([AEEA-AEEA-γGlu-C20 diacid])ETAAQQRFLEHLV-NH2): the “Turbidity (pH 7)” value in data set [1] is reported as 0.08. This molecule registered a Fibril formation in data set [2] of 193729. Besides, the Selectivity at GLP1R was determined as 17906. Moreover, the EC50 on GLP1R (setting [3]) is 0.0126 nM; on SCTR (setting [4]), 200 nM.
With `CC[C@H](C)[C@H](NC(=O)[C@H](Cc1ccccc1)NC(=O)[C@H](CCCNC(=N)N)NC(=O)[C@H](CCC(N)=O)NC(=O)[C@H](CC(C)C)NC(=O)[C@H](C)NC(=O)[C@H](C)NC(=O)CNC(=O)[C@H](CCC(=O)O)NC(=O)[C@H](CC(C)C)NC(=O)[C@H](CC(C)C)NC(=O)[C@H](Cc1ccc(O)cc1)NC(=O)[C@H](CO)NC(=O)C(C)(C)NC(=O)[C@H](CC(=O)O)NC(=O)[C@H](CO)NC(=O)[C@@H](NC(=O)[C@H](Cc1ccccc1)NC(=O)[C@@H](NC(=O)CNC(=O)[C@H](CCC(=O)O)NC(=O)C(C)(C)NC(=O)[C@@H](N)Cc1c[nH]cn1)[C@@H](C)O)[C@@H](C)O)C(=O)N[C@@H](CCC(N)=O)C(=O)N[C@@H](Cc1c[nH]c2ccccc12)C(=O)N[C@@H](CC(C)C)C(=O)N[C@H](C(N)=O)C(C)C` [compound 106] (H-H[Aib]EGTFTSD[Aib]SYLLEGAALQRFIQWLV-NH2), the “Turbidity (pH 7)” value in data set [1] is 0.74. Moreover, the Fibril formation in data set [2] is recorded as 11918. In addition, the figures for the EC50 at GLP1R (setting [5]) and on SCTR (setting [6]) were 0.0158 nM and 1580 nM, respectively. Moreover, on GLP1R, the “SCTR EC50/GLP1R EC50 ratio” value turned out to be 100392.
Taken in the same sequence, the figures for `CC(C)C[C@H](NC(=O)[C@H](Cc1c[nH]c2ccccc12)NC(=O)[C@H](CCCNC(=N)N)NC(=O)[C@H](CCC(N)=O)NC(=O)[C@H](CC(C)C)NC(=O)C(C)(C)NC(=O)[C@H](C)NC(=O)[C@H](CCC(=O)O)NC(=O)[C@H](CCC(=O)O)NC(=O)[C@H](CCCCNC(=O)COCCOCCNC(=O)COCCOCCNC(=O)CC[C@H](NC(=O)CCCCCCCCCCCCCCCCCCC(=O)O)C(=O)O)NC(=O)[C@H](CC(C)C)NC(=O)[C@H](Cc1ccc(O)cc1)NC(=O)[C@H](CO)NC(=O)[C@@H](NC(=O)[C@H](CC(=O)O)NC(=O)[C@H](CO)NC(=O)[C@@H](NC(=O)[C@H](Cc1ccccc1)NC(=O)[C@@H](NC(=O)CNC(=O)[C@H](CCC(=O)O)NC(=O)C(C)(C)NC(=O)[C@@H](N)Cc1c[nH]cn1)[C@@H](C)O)[C@@H](C)O)C(C)C)C(=O)N[C@@H](CCC(=O)O)C(=O)N[C@@H](Cc1c[nH]cn1)C(=O)N[C@@H](CC(C)C)C(=O)N[C@H](C(N)=O)C(C)C` [compound 135] (H-H[Aib]EGTFTSDVSYLK([AEEA-AEEA-γGlu-C20 diacid])EEA[Aib]LQRWLEHLV-NH2) were 0.09, 4491, 0.00501 nM, 126 nM and 22241.
On to `CC(C)C[C@H](NC(=O)[C@H](Cc1ccccc1)NC(=O)[C@H](CCCNC(=N)N)NC(=O)[C@H](CCC(N)=O)NC(=O)[C@H](CCC(N)=O)NC(=O)[C@H](C)NC(=O)[C@H](C)NC(=O)[C@H](Cc1ccccc1)NC(=O)[C@H](CCC(=O)O)NC(=O)[C@H](CCCCNC(=O)COCCOCCNC(=O)COCCOCCNC(=O)CC[C@H](NC(=O)CCCCCCCCCCCCCCCCCCC(=O)O)C(=O)O)NC(=O)[C@H](CC(C)C)NC(=O)[C@H](CCCNC(=N)N)NC(=O)[C@H](CO)NC(=O)[C@@H](NC(=O)[C@H](CC(=O)O)NC(=O)[C@H](CO)NC(=O)[C@@H](NC(=O)[C@H](Cc1ccccc1)NC(=O)[C@@H](NC(=O)CNC(=O)[C@H](CCC(=O)O)NC(=O)C(C)(C)NC(=O)[C@@H](N)Cc1c[nH]cn1)[C@@H](C)O)[C@@H](C)O)C(C)C)C(=O)N[C@@H](CCC(=O)O)C(=O)N[C@@H](Cc1c[nH]cn1)C(=O)N[C@@H](CC(C)C)C(=O)N[C@H](C(N)=O)C(C)C` [compound 24] (H-H[Aib]EGTFTSDVSRLK([AEEA-AEEA-γGlu-C20 diacid])EFAAQQRFLEHLV-NH2), for which, in data set [1], the “Turbidity (pH 7)” value amounted to 0.08. The Fibril formation in data set [2] is recorded as 221619. In addition, the Selectivity at GLP1R came to 2998. Also, the EC50 is 0.0501 nM at GLP1R (setting [3]) and 158 nM at SCTR (setting [4]).
Consider `CC(C)C[C@H](NC(=O)[C@H](Cc1ccccc1)NC(=O)[C@H](CCCNC(=N)N)NC(=O)[C@H](CCC(N)=O)NC(=O)[C@H](C)NC(=O)C(C)(C)NC(=O)[C@H](C)NC(=O)[C@H](CCC(=O)O)NC(=O)[C@H](CCC(=O)O)NC(=O)[C@H](CCCCNC(=O)COCCOCCNC(=O)COCCOCCNC(=O)CC[C@H](NC(=O)CCCCCCCCCCCCCCCCCCC(=O)O)C(=O)O)NC(=O)[C@H](CC(C)C)NC(=O)[C@H](Cc1ccc(O)cc1)NC(=O)[C@H](CO)NC(=O)[C@@H](NC(=O)[C@H](CC(=O)O)NC(=O)[C@H](CO)NC(=O)[C@@H](NC(=O)[C@H](Cc1ccccc1)NC(=O)[C@@H](NC(=O)CNC(=O)[C@H](CCC(=O)O)NC(=O)C(C)(C)NC(=O)[C@@H](N)Cc1c[nH]cn1)[C@@H](C)O)[C@@H](C)O)C(C)C)C(=O)N[C@@H](CCC(=O)O)C(=O)N[C@@H](Cc1c[nH]cn1)C(=O)N[C@@H](CC(C)C)C(=O)N[C@H](C(N)=O)C(C)C` [compound 146] (H-H[Aib]EGTFTSDVSYLK([AEEA-AEEA-γGlu-C20 diacid])EEA[Aib]AQRFLEHLV-NH2), for which the “Turbidity (pH 7)” value in data set [1] is given as 0.08. The molecule also displayed a Fibril formation in data set [2] of 3918. Moreover, the EC50 at GLP1R (setting [5]) is 0.00251 nM; at SCTR (setting [6]), 2000 nM. For the same molecule, on GLP1R, the “SCTR EC50/GLP1R EC50 ratio” value is given as 789678.
For `CC(C)C[C@H](NC(=O)[C@H](Cc1ccccc1)NC(=O)[C@H](CCCNC(=N)N)NC(=O)[C@H](CCC(N)=O)NC(=O)[C@@H](NC(=O)[C@H](C)NC(=O)[C@H](C)NC(=O)[C@@H](NC(=O)[C@H](CCC(=O)O)NC(=O)[C@H](CCCCNC(=O)COCCOCCNC(=O)COCCOCCNC(=O)CC[C@H](NC(=O)CCCCCCCCCCCCCCCCCCC(=O)O)C(=O)O)NC(=O)[C@H](CC(C)C)NC(=O)[C@H](CCCNC(=N)N)NC(=O)[C@H](CO)NC(=O)[C@@H](NC(=O)[C@H](CC(=O)O)NC(=O)[C@H](CO)NC(=O)[C@@H](NC(=O)[C@H](Cc1ccccc1)NC(=O)[C@@H](NC(=O)CNC(=O)[C@H](CCC(=O)O)NC(=O)C(C)(C)NC(=O)[C@@H](N)Cc1c[nH]cn1)[C@@H](C)O)[C@@H](C)O)C(C)C)[C@@H](C)O)[C@@H](C)O)C(=O)N[C@@H](CCC(=O)O)C(=O)N[C@@H](Cc1c[nH]cn1)C(=O)N[C@@H](CC(C)C)C(=O)N[C@H](C(N)=O)C(C)C` [compound 26] (H-H[Aib]EGTFTSDVSRLK([AEEA-AEEA-γGlu-C20 diacid])ETAATQRFLEHLV-NH2), the “Turbidity (pH 7)” value in data set [1] came out at 0.08. In addition, the Fibril formation in data set [2] stood at 97558. Further, the Selectivity on GLP1R was 4577. The EC50 at GLP1R (setting [3]) is 0.0126 nM; on SCTR (setting [4]) it was 63.1 nM.
Take `CC(C)C[C@H](NC(=O)[C@H](Cc1ccccc1)NC(=O)[C@H](CCCNC(=N)N)NC(=O)[C@H](CCC(N)=O)NC(=O)[C@H](CC(C)C)NC(=O)C(C)(C)NC(=O)[C@H](C)NC(=O)[C@H](CCC(=O)O)NC(=O)[C@H](CCC(=O)O)NC(=O)[C@H](CCCCNC(=O)COCCOCCNC(=O)COCCOCCNC(=O)CC[C@H](NC(=O)CCCCCCCCCCCCCCCCCCC(=O)O)C(=O)O)NC(=O)[C@H](CC(C)C)NC(=O)[C@H](Cc1ccc(O)cc1)NC(=O)[C@H](CO)NC(=O)[C@@H](NC(=O)[C@H](CC(=O)O)NC(=O)[C@H](CO)NC(=O)[C@@H](NC(=O)[C@H](Cc1ccccc1)NC(=O)[C@@H](NC(=O)CNC(=O)[C@H](Cc1c[nH]c2ccccc12)NC(=O)C(C)(C)NC(=O)[C@@H](N)Cc1c[nH]cn1)[C@@H](C)O)[C@@H](C)O)C(C)C)C(=O)N[C@@H](CCC(=O)O)C(=O)N[C@@H](Cc1c[nH]cn1)C(=O)N[C@@H](CC(C)C)C(=O)N[C@H](C(N)=O)C(C)C` [compound 160] (H-H[Aib]WGTFTSDVSYLK([AEEA-AEEA-γGlu-C20 diacid])EEA[Aib]LQRFLEHLV-NH2): the “Turbidity (pH 7)” value in data set [1] is 0.09. For the same molecule, in data set [2], the Fibril formation was 4754. Also, the EC50 is 0.794 nM on GLP1R (setting [5]) and 25100 nM on SCTR (setting [6]). Besides, the “SCTR EC50/GLP1R EC50 ratio” value at GLP1R is given as 33562.
